Measured values from paper PMC10092844, “Inhibition profile of trifludimoxazin towards PPO2 target site mutations” (Pest Management Science, 2022).

What was measured:
PPO2 ΔG210 = target: T1, PPO2 ΔG210 (Amaranthus tuberculatus, UniProt Q0NZW9, DEL210-210); type: biochemical
T1 sequence (Q0NZW9 with tags, fused parts or gaps DEL210-210): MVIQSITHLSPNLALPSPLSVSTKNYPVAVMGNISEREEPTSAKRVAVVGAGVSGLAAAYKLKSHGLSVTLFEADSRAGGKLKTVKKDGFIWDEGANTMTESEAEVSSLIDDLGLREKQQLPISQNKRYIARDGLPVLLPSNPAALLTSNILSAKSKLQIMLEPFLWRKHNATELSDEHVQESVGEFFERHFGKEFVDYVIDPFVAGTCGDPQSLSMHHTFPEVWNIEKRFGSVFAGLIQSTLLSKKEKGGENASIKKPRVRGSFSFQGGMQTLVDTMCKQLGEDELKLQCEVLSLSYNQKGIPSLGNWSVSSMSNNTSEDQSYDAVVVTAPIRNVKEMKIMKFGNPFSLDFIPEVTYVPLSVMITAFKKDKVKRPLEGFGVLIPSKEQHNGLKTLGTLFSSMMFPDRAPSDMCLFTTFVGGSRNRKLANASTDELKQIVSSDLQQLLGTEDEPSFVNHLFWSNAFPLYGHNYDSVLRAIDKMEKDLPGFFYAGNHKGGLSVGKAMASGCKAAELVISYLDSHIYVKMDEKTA

PPO2 wild-type = PPO2 wild-type (Amaranthus tuberculatus, UniProt Q0NZW9); assay: in vitro inhibition assay, recombinant PPO2 enzyme; type: biochemical
PPO2 wild-type, sequence (Q0NZW9 entry or part of it): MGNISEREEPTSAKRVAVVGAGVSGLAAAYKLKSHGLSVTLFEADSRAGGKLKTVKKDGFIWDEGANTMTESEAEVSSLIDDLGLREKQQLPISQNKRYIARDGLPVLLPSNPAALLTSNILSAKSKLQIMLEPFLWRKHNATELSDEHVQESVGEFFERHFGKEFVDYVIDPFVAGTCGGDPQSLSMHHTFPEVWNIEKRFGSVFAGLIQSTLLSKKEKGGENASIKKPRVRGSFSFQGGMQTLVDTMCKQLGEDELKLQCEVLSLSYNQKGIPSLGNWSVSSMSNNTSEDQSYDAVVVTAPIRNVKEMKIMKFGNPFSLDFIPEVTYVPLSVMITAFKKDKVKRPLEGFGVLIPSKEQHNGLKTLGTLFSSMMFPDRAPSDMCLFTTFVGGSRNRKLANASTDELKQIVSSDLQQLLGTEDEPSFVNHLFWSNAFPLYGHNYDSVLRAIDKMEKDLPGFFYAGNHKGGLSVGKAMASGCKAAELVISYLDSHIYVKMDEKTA

SMILES | IC50 (PPO2 ΔG210) | Resistance factor (PPO2 ΔG210) | Resistance factor (PPO2 wild-type)
CS(=O)(=O)NC(=O)c1cc(Oc2ccc(C(F)(F)F)cc2Cl)ccc1[N+](=O)[O-] [Fomesafen, fomesafen] | > 10000 nM | – | –
CCOC(=O)C(C)OC(=O)c1cc(Oc2ccc(C(F)(F)F)cc2Cl)ccc1[N+](=O)[O-] (stereo not drawn) [Lactofen, lactofen] | 544 nM | – | –
CC(C)N(C)S(=O)(=O)NC(=O)c1cc(-n2c(=O)cc(C(F)(F)F)n(C)c2=O)c(F)cc1Cl [Saflufenacil, saflufenacil] | 2040 nM | – | –
C#CCN1C(=O)C(F)(F)Oc2cc(F)c(-n3c(=O)n(C)c(=S)n(C)c3=O)cc21 [Trifludimoxazin, trifludimoxazin] | 1.83 nM | 7 | 1
